Values quoted from earlier work as cited in patent publication US12291505B2, “Methods for the synthesis of deuterated dextromethorphan” (AVANIR PHARMACEUTICALS, INC., priority 2016, dated 2025).

Columns and labels:
[1] = target: sigma-1 (Homo sapiens, UniProt Q99720); settings: read-out: Ki, sigma-1; sigma-1 agonist
[2] = target: N-methyl-D-aspartate (NMDA) receptor; settings: weak uncompetitive antagonist
[3] = target: norepinephrine transporter (Homo sapiens, UniProt P23975); settings: read-out: Ki, norepinephrine transporter affinity
Chain of norepinephrine transporter (P23975 whole entry, species assumed): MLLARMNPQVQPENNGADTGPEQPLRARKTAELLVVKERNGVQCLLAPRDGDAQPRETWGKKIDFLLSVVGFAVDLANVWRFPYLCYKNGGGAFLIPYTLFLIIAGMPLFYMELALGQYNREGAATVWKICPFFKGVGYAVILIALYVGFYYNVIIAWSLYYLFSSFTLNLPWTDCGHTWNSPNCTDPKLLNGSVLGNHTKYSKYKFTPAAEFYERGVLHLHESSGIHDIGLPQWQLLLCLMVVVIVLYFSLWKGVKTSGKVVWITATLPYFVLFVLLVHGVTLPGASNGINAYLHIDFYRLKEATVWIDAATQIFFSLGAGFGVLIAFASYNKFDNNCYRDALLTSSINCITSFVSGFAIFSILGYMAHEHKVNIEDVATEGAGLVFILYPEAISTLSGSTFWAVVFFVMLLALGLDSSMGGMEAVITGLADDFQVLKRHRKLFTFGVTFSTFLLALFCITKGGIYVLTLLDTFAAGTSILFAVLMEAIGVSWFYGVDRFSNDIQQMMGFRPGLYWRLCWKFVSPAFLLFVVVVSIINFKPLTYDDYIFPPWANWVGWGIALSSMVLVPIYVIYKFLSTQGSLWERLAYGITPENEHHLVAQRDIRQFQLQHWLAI

[4] = target: uptake of norepinephrine; settings: read-out: Ki, inhibition of uptake of norepinephrine
[5] = co-administered with dextromethorphan

Chain of sigma-1 (Q99720 whole entry): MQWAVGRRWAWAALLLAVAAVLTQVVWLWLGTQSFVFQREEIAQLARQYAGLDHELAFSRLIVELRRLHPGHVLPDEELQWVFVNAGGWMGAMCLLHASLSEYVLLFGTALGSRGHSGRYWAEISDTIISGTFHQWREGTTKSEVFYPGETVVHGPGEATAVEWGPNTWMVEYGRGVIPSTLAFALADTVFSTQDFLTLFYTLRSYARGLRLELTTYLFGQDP

Structure (SMILES)	Ki [1] [nM]	Ki [2] [nM]	Ki [3] [nM]	Ki [4] [nM]	effect on dextromethorphan in the blood [5]
COc1ccc2c(c1)[C@]13CCCC[C@@H]1[C@H](C2)N(C)CC3 [DM, (+)-3-methoxy-17-methyl-(9α,13α,14α)-morphinan]	200	1500	13000	240	–
C=C[C@H]1C[N@@]2CC[C@H]1C[C@@H]2[C@@H](O)c1ccnc2ccc(OC)cc12 [Quinidine]	–	–	–	–	greatly increases the quantity of dextromethorphan circulating in the blood
